Laboratory results published in US11279744B2, “Neuropeptide Y fragment capable of releasing hematopoietic stem cells into blood and treating osteoporosis” (Kyungpook National University Industry-Academic Cooperation …, priority 2017, dated 2022).
Entries after “also recorded” stand apart in the source; their conditions may differ. Non-standard residues stand in square brackets, D forms with d. No end group written: not given here.

What was measured:
Format in all cases: in vivo, mouse
[1] = weight change in animal models of osteoporosis (OVX); conditions: OVX mice, 50 μg/kg intraperitoneally twice a day for 4 weeks; weighed weekly; vs PBS group that gained weight
Procedure: (§1) To make an osteoporosis model, 10-18 12 weeks old female mice per group underwent ovarian ablation. A week later, 50 μg/kg of NPY(21-28), NPY D^25(21-28), NPY D^26(21-28), NPY D^25,26(21-28), Osteopep2, NPY and 100 μl of PBS(Gibco) were intraperitoneally administered twice a day for 4 weeks at 12 hour intervals. Alendronate (Sigma), used as a competitive drug, was intraperitoneally administered once a week for 4 weeks at a dose of 50 μg/kg. As a control group, only Sham model of osteoporosis was performed by subcutaneous dissection of female mouse. Mice were placed in experimental groups using the Block randomization method, and all mouse experiments were approved through the Kyungpook National University Institutional Animal Care and Use Committee.
In order to investigate whether the NPY (21-28) of the present invention affects the blood release of myelopoiesis stem cells in the animal models of osteoporosis, the following experiments were carried out according to the methods of Examples 1-1, 1-3, 1-4, and 1-5. In order to make animal models of osteoporosis, 12 weeks old C57BL/6 female mice were subjected to ovarian ablation for 10 to 18 animals in each group. One week later, 50 μg/kg of NPY (21-28) and 100 μl of PBS (Gibco) were intraperitoneally administered twice a day for 4 weeks at 12 hour intervals. As a control group, mice that underwent only subcutaneous incisions in normal mice were used. Weight change was measured weekly, and bone marrow and blood were collected one hour after the last dose at 4 weeks, and the release of myelopoiesis progenitor and stem cells into blood was analyzed. […]
In order to investigate the effect of NPY (21-28) of the present invention on weight gain induced by osteoporosis, body weight was measured once a week for a total of 4 weeks of NPY (21-28) injection. […]
In order to investigate the effects of NPY D^25(21-28), NPY D^26(21-28), and NPY D^25,26(21-28) of the present invention on weight gain induced by osteoporosis, body weight was measured once a week for a total of 4 weeks in which each peptide was injected.

[2] = tested on: animal models of osteoporosis; assay: Micro CT bone density in animal models of osteoporosis; conditions: OVX mice, 50 μg/kg i.p. twice a day for 4 weeks; femur microCT; compared to PBS
Procedure: as §1, with “Committee. The femurs were separated from the mouse and refrigerated in 80% ethanol, and in order to measure change of bone density, the bone volume/total volume and trabecular thickness were measured by analyzing the area between 0.7 mm and 2.3 mm from the growth plate baseline with the Quantum FX microCT Imaging System. Femurs were separated from mice after the last administration of NPY (21-28) at 4 weeks. To determine the change of bone density, bone density (bone volume/total volume) and bone tissue thickness (trabecular thickness) were measured with the Quantum FX microCT Imaging System. Femurs were separated from mice after the last administration of NPY D^25(21-28), NPY D^26(21-28), and NPY D^25,26(21-28) at 4 weeks. To determine the change of bone density, bone density (bone volume/total volume) and bone tissue thickness (trabecular thickness) were measured with the Quantum FX microCT Imaging System.” for “Committee.”

[3] = tested on: osteoclasts in bone marrow; assay: TRAP staining of osteoclasts in bone marrow of osteoporosis animal models; conditions: OVX mice, 50 μg/kg i.p. twice a day for 4 weeks; compared to PBS
Procedure: as §1
(§2) The femurs were separated from the mice and fixed in 4% paraformaldehyde for 24 hours, and tissue was decalcified in 10% EDTA for 5 weeks. It was then dehydrated with a series of diluted alcohols, paraffinized, and prepared into […] paraffin sections.
For TRAP staining, sections were deparaffinized, stained with 1.33 mM Fast Red Violet LB Salt (Sigma-Aldrich) in 50 mM sodium acetate (pH 5.0) containing 225 μM Naphthol AS-MX phosphate (Sigma-Aldrich, St Louis, Mo., USA), 0.84% N, N-dimethylformamide (Sigma-Aldrich) and 50 mM sodium tartrate, and incubated for 30 minutes. After incubation, the sections were washed with distilled water and counterstained with 1% methyl green.
(§3) Histomorphometric analysis was performed using the OsteoMeasure program (Extensive interactive Bone Histomorphometry Analysis System).
After the last administration at 4 weeks of NPY (21-28), the femurs were separated from the mice and the number of osteoclasts in the bone marrow was measured by TRAP staining.
After the last administration at 4 weeks of NPY D^25(21-28), NPY D^26(21-28), and NPY D^25,26(21-28), the femurs were separated from the mice and the number of osteoclasts in the bone marrow was measured by TRAP staining.

[4] = tested on: osteoblasts in bone marrow; assay: H & E staining of osteoblasts in bone marrow of osteoporosis animal models; conditions: OVX mice, 50 μg/kg i.p. twice a day for 4 weeks; compared to PBS
Procedure: as §1, §2
For H & E staining, the deparaffinized sections were stained with Harris hematoxyline for 8 minutes, washed with distilled water, and stained with Eosin for 1 minute.
as §3
After the last administration of 4 weeks of NPY (21-28), the femurs were separated from the mice, and the number of osteoblasts in bone marrow was measured by H & E staining.
After the last administration of 4 weeks of NPY D^25(21-28), NPY D^26(21-28), and NPY D^25,26(21-28), the femurs were separated from the mice and the number of osteoblasts in bone marrow was measured by H & E staining.

Substance: NPY D^25(21-28): peptide in which arginine, the fifth amino acid of the amino acid sequence of NPY (21-28), is modified to D-type (YSAL[dR]HYI)
- weight change [1]: did not change in weight
- bone tissue thickness (trabecular thickness) [2]: increased; also recorded: equal to or higher than that of NPY (21-28)
- percentage of bone density (BV/TV) [2]: increased; also recorded: equal to or higher than that of NPY (21-28)
- number of TRAP positive osteoclasts in bone marrow (Number of osteoclast/Bone surface) [3]: reduced
- osteoclast surface (Osteoclast surface/Bone surface) [3]: reduced
- number of osteoblast (Number of osteoblast/Bone surface) [4]: increased
- osteoblast surface (Osteoblast surface/Bone surface) [4]: increased

Substance: NPY D^25,26(21-28): peptide in which both the fifth and sixth amino acids of NPY (21-28) are modified to D-form (YSAL[dR][dH]YI)
- weight change [1]: did not change in weight
- bone tissue thickness (trabecular thickness) [2]: increased; also recorded: equal to or higher than that of NPY (21-28); also recorded: best effect
- percentage of bone density (BV/TV) [2]: increased; also recorded: equal to or higher than that of NPY (21-28); also recorded: best effect
- number of TRAP positive osteoclasts in bone marrow (Number of osteoclast/Bone surface) [3]: reduced; also recorded: highest efficiency
- osteoclast surface (Osteoclast surface/Bone surface) [3]: reduced
- number of osteoblast (Number of osteoblast/Bone surface) [4]: increased
- osteoblast surface (Osteoblast surface/Bone surface) [4]: increased

Substance: YSALRHYI [NPY (21-28)]
- weight change [1]: did not change in weight
- bone tissue thickness (trabecular thickness) [2]: better than that of the Osteopep2 and NPY
- percentage of bone density (BV/TV) [2]: better than that of the Osteopep2 and NPY
- number of TRAP positive osteoclasts in bone marrow (Number of osteoclast/Bone surface) [3]: superior to Osteopep2 and NPY; also recorded: superior to the competitive drug Alendronate
- osteoclast surface (Osteoclast surface/Bone surface) [3]: superior to Osteopep2 and NPY; also recorded: superior to the competitive drug Alendronate
- number of osteoblast (Number of osteoblast/Bone surface) [4]: increased; also recorded: better than that of Osteopep2
- osteoblast surface (Osteoblast surface/Bone surface) [4]: increased; also recorded: better than that of Osteopep2
